Results published in patent US20190209548A1, “LINKED DIARYL COMPOUNDS WITH ANTICANCER PROPERTIES AND METHODS OF USING THE SAME” (University of Maryland, College Park, priority 2014, published 2019).

What was measured:
27mer WT bcl-2 = assay: CD titration with bcl-2 G-quadruplex; type: binding; conditions: K+ Tris buffer
Procedure: (§1) Circular Dichroism (CD). CD titration experiments were performed with an Olis DSM-20 spectropolarimeter (Bogart, Ga.). All measurements were done at 25° C. using a 1 cm quartz cuvette and covering a spectral range of 220-420 nm. […] Stock solutions of the ligand were added in small amount to reach a molar ratio of 1:1, 3:1, 6:1, and 10:1 of ligand per equivalence of DNA.

hTel22 = assay: CD titration with hTel22; type: binding, human; conditions: K+ Tris buffer
Procedure: as §1

For `N=C(N)c1ccc(/N=N/Nc2ccc(C(=N)N)cc2)cc1` [DMZ, Diminazene aceturate, reference compound], the “CD signal of G-quadruplex upon complexation” value (27mer WT bcl-2) was “dramatically decreased” and the “effect on structure of G-quadruplex (CD)” value (hTel22) was “very little effect on the structure”.
